Test results reported in article PMC9234961 (Journal of Medicinal Chemistry, 2022).
Like-named read-outs stand apart in the source and are kept apart here.

What was measured:
GR = target: T1, GR (Homo sapiens, UniProt P04150); experiment: SAFETYScan NHR Protein Interaction, Antagonist; assay type: cell-based
T1 sequence (P04150 1-777): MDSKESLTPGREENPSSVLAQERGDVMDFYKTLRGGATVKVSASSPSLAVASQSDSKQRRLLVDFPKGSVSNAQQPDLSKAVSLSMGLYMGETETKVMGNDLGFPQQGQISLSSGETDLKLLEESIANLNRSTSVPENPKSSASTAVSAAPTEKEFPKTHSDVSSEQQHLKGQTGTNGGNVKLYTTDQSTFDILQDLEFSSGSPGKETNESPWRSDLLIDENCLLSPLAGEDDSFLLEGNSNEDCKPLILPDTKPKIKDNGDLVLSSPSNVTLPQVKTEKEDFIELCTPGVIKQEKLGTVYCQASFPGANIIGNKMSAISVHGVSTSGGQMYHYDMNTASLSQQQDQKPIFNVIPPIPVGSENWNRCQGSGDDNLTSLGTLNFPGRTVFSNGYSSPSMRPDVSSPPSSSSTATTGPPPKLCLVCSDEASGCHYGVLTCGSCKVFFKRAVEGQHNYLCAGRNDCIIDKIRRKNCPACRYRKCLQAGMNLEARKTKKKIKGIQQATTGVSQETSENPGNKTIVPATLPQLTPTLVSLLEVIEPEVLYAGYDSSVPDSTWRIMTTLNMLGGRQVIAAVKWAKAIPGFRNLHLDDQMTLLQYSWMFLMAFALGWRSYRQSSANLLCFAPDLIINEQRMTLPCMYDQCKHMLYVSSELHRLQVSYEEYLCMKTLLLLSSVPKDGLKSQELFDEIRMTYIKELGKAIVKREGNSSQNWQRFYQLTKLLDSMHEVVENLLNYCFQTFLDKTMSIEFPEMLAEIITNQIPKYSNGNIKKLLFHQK
Excerpt: Supplement jm1c02175_si_002.xlsx, sheet "SAFETYScan" | column: RC50 (uM); Max Response

kinases (468) [1] = target: kinases (468) (Homo sapiens, UniProt O00750); details: PIK3C2B; 1000 nM
kinases (468) [2] = target: kinases (468) (Homo sapiens, UniProt P10721, T670I/V559D); details: KIT(V559D,T670I); 1000 nM
kinases (468) [3] = target: kinases (468) (Homo sapiens, UniProt P27448); details: MARK3; 1000 nM
kinases (468) [4] = target: kinases (468) (Homo sapiens, UniProt P29320); details: EPHA3; 1000 nM
kinases (468) [5] = target: kinases (468) (Homo sapiens, UniProt P29597); details: compound concentration 1000 nM
kinases (468) [6] = target: kinases (468) (Homo sapiens, UniProt P36888); details: 1000 nM
kinases (468) [7] = target: kinases (468) (Homo sapiens, UniProt P42336); details: PIK3CA; 1000 nM
kinases (468) [8] = target: kinases (468) (Homo sapiens, UniProt P49840); details: GSK3A; 1000 nM
kinases (468) [9] = target: kinases (468) (Homo sapiens, UniProt P54762); details: EPHB1; 1000 nM
kinases (468) [10] = target: kinases (468) (Homo sapiens, UniProt P57078); details: kinase RIPK4 (Entrez RIPK4); compound concentration 1000 nM
kinases (468) [11] = target: kinases (468) (Homo sapiens, UniProt P68400); details: CSNK2A1; 1000 nM
kinases (468) [12] = target: kinases (468) (Homo sapiens, UniProt Q00536); details: PCTK1 (CDK16); 1000 nM
kinases (468) [13] = target: kinases (468) (Homo sapiens, UniProt Q13163); details: MEK5 (MAP2K5); 1000 nM
kinases (468) [14] = target: kinases (468) (Homo sapiens, UniProt Q13233); details: MAP3K1; 1000 nM
kinases (468) [15] = target: kinases (468) (Homo sapiens, UniProt Q8N5S9); details: CAMKK1; 1000 nM
kinases (468) [16] = target: kinases (468) (Homo sapiens, UniProt Q8NI60); details: ADCK3 (CABC1); 1000 nM
kinases (468) [17] = target: kinases (468) (Homo sapiens, UniProt Q8TD08); details: ERK8 (MAPK15); 1000 nM
kinases (468) [18] = target: kinases (468) (Homo sapiens, UniProt Q96SB4); details: kinase SRPK1 (Entrez SRPK1); compound concentration 1000 nM
kinases (468) [19] = target: kinases (468) (Homo sapiens, UniProt Q99558); details: NIK (MAP3K14); 1000 nM
kinases (468) [20] = target: kinases (468) (Homo sapiens, UniProt Q9C098); details: DCAMKL3 (DCLK3); 1000 nM
kinases (468) [21] = target: kinases (468) (Homo sapiens, UniProt Q9H2X6); details: HIPK2; 1000 nM
kinases (468) [22] = target: kinases (468) (Homo sapiens, UniProt Q9NYY3); details: PLK2; 1000 nM
kinases (468) [23] = target: kinases (468) (Homo sapiens, UniProt Q9UQM7); details: CAMK2A; 1000 nM
kinases (468) [24] = target: kinases (468) (Homo sapiens, UniProt Q9Y4K4); details: MAP4K5; 1000 nM
kinases (468) [25] = target: kinases (468) (Homo sapiens, UniProt Q9Y6M4); details: CSNK1G3; 1000 nM

Sequence of kinases (468) (Homo sapiens, UniProt P36888) (P36888 27-993): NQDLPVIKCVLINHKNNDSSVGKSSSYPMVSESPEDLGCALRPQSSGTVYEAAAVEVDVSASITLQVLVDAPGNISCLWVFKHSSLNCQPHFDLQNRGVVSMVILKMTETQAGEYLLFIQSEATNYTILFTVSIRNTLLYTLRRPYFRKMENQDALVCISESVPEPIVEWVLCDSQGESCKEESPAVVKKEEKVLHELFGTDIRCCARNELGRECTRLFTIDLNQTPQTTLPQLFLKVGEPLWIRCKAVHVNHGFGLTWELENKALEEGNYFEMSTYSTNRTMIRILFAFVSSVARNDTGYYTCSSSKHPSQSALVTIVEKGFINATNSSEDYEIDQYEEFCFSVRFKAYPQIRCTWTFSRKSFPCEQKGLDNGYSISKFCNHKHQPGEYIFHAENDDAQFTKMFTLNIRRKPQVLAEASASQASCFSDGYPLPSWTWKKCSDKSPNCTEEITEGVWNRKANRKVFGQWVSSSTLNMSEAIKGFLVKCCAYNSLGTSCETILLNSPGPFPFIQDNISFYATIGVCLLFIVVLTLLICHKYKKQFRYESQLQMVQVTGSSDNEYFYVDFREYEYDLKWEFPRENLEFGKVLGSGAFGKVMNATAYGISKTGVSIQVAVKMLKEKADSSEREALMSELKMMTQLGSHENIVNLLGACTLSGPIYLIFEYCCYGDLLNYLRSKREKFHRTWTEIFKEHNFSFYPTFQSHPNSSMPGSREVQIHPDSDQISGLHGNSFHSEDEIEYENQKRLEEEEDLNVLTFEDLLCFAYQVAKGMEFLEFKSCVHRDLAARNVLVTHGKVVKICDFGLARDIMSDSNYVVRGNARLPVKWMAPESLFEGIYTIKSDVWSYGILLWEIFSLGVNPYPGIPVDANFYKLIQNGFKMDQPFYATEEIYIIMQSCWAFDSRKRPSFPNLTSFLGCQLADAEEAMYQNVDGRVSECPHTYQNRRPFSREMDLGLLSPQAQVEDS
Sequence of kinases (468) (Homo sapiens, UniProt P29597) (P29597 whole entry): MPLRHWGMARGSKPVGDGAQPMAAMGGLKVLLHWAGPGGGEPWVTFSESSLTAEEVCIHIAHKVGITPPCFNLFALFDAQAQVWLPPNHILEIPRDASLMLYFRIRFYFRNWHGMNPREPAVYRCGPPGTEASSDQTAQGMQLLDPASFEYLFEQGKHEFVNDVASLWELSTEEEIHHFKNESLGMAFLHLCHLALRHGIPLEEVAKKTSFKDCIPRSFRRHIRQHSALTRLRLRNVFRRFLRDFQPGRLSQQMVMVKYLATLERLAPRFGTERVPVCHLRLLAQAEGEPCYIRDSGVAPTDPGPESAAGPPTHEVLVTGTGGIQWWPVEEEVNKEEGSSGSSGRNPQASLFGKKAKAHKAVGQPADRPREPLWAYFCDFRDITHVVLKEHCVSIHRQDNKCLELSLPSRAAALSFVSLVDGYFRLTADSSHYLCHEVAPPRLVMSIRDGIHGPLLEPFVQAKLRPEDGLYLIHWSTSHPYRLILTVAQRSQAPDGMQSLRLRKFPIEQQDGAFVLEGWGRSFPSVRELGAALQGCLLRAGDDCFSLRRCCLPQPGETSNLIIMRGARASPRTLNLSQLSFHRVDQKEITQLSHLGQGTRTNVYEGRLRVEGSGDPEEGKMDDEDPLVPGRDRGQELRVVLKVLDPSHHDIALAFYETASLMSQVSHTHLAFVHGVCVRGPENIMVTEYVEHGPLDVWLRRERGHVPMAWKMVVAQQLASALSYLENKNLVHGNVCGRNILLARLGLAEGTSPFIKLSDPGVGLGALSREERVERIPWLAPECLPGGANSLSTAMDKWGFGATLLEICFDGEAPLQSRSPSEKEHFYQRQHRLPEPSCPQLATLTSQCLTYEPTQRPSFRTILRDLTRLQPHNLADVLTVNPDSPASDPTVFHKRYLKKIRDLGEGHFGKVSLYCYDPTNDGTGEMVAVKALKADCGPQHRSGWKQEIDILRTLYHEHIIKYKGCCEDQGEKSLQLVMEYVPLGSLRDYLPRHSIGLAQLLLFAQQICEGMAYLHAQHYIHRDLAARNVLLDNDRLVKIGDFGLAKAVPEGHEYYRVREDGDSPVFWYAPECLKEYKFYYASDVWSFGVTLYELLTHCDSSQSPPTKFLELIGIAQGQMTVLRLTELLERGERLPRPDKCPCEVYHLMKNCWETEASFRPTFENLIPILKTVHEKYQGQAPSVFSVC
Sequence of kinases (468) (Homo sapiens, UniProt Q8N5S9) (Q8N5S9 whole entry): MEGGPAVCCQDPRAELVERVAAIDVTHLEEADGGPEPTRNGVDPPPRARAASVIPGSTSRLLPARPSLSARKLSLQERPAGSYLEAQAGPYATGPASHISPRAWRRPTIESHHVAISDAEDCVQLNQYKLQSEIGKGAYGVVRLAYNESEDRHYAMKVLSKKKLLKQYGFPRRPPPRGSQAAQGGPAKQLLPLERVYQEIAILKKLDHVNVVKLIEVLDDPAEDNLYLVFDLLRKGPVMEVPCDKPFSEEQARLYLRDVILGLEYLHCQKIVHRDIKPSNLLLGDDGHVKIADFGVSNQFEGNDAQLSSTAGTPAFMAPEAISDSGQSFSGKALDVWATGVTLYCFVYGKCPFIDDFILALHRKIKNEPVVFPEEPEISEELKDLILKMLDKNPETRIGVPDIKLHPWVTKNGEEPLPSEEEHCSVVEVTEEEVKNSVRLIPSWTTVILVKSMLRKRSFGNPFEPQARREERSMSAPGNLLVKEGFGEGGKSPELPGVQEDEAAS
Sequence of kinases (468) (Homo sapiens, UniProt Q9NYY3) (Q9NYY3 whole entry): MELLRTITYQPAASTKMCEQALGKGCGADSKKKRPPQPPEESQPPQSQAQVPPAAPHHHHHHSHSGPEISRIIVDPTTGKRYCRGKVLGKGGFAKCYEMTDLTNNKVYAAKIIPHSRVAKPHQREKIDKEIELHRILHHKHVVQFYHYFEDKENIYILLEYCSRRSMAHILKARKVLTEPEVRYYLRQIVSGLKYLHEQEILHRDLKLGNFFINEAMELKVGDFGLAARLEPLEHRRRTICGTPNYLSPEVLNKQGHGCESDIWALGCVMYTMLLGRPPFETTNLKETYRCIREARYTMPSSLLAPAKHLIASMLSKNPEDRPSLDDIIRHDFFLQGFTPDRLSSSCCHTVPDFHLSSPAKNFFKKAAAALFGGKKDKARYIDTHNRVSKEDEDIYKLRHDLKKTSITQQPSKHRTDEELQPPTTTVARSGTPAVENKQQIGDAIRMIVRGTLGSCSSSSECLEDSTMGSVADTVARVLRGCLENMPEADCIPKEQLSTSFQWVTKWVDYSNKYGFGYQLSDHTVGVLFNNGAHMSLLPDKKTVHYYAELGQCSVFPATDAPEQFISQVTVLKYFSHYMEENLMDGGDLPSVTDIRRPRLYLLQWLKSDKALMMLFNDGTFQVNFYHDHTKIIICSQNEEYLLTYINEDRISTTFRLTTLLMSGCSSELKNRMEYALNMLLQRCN
Sequence of kinases (468) (Homo sapiens, UniProt P57078) (P57078 whole entry): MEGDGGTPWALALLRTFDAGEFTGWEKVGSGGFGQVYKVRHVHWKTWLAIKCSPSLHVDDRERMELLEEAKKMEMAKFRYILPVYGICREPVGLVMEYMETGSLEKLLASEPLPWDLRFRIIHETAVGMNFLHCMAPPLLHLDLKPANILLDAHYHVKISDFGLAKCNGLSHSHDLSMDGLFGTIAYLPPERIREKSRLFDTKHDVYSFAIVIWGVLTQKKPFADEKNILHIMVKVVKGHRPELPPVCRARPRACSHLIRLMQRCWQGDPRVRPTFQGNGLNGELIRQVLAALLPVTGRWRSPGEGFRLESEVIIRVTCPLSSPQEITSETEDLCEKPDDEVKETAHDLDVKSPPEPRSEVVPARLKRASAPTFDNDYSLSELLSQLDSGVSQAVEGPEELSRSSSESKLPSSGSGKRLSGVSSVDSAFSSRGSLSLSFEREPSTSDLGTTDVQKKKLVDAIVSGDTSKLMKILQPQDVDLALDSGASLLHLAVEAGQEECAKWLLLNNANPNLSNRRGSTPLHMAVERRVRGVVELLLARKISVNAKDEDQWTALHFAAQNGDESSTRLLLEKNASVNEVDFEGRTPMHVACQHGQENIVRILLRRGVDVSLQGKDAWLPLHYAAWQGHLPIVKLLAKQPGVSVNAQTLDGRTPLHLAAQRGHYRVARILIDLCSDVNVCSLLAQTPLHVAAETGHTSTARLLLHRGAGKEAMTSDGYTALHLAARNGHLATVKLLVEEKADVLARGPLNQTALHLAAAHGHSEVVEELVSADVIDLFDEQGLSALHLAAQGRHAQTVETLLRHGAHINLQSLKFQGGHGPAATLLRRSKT
Sequence of kinases (468) (Homo sapiens, UniProt Q8TD08) (Q8TD08 whole entry): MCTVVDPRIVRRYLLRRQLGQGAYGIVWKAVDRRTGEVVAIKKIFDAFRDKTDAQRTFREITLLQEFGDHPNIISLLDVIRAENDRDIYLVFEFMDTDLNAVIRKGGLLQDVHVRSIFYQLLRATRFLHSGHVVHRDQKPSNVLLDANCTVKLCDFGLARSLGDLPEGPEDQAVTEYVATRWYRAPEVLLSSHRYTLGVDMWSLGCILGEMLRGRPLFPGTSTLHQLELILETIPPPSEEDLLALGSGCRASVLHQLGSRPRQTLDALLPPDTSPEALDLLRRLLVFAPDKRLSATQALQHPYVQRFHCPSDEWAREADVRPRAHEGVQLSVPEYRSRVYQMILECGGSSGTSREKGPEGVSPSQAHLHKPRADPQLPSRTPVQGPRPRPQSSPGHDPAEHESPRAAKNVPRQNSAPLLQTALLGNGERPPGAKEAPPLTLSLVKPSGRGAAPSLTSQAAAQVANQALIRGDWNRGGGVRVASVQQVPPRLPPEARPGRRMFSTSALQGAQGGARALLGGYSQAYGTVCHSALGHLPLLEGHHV

In the case of C[C@H]1C[C@@H](O)CN(c2ncc(Cl)c(Nc3ccc4c(c3)c3c(c(=O)n4C)OCC(F)(F)[C@H](C4CC4)N3)n2)C1 [12a CCT373566, (S)-10-((5-Chloro-2-((3R,5S)-3-hydroxy-5-methylpiperidin-1-yl)pyrimidin-4-yl)amino)-2-cyclopropyl-3,3-difluoro-7-methyl-1,2,3,4-tetrahydro-[1,4]oxazepino[2,3-c]quinolin-6(7H)-one], the Emax (GR; read-out: Max Response) is reported as 2.11% and the IC50 (GR; read-out: RC50 (IC50)) is reported as > 10 µM.
C[C@H]1C[C@@H](O)CN(c2ncc(Cl)c(Nc3ccc4c(c3)c3c(c(=O)n4C)OCC(F)(F)[C@H](C4CC4)N3)n2)C1 [CCT373566_9A] was tested, and the “Percent Control” value (kinases (468) [1]) was 100%, the “Percent Control” value (kinases (468) [2]) was 98% and the “Percent Control” value (kinases (468) [3]) was 89%. The “Percent Control” value (kinases (468) [4]) was 85%, the “Percent Control” value (kinases (468) [5]; kinase TYK2(JH1domain-catalytic) (Entrez TYK2)) was 97% and the “Percent Control” value (kinases (468) [5]; kinase TYK2(JH2domain-pseudokinase) (Entrez TYK2)) was 89%. The “Percent Control” value (kinases (468) [6]; FLT3-autoinhibited) was 98%, the “Percent Control” value (kinases (468) [6]; FLT3) was 99% and the “Percent Control” value (kinases (468) [7]) was 100%. For the same compound, the “Percent Control” value (kinases (468) [8]) was 95%, the “Percent Control” value (kinases (468) [9]) was 99% and the “Percent Control” value (kinases (468) [10]) was 100%. The “Percent Control” value (kinases (468) [11]) was 91%, the “Percent Control” value (kinases (468) [12]) was 100% and the “Percent Control” value (kinases (468) [13]) was 100%. For the same compound, the “Percent Control” value (kinases (468) [14]) was 93%, the “Percent Control” value (kinases (468) [15]) was 99% and the “Percent Control” value (kinases (468) [16]) was 100%. For the same compound, the “Percent Control” value (kinases (468) [17]) was 95%, the “Percent Control” value (kinases (468) [18]) was 83% and the “Percent Control” value (kinases (468) [19]) was 83%. For the same compound, the “Percent Control” value (kinases (468) [20]) was 100%, the “Percent Control” value (kinases (468) [21]) was 100% and the “Percent Control” value (kinases (468) [22]) was 87%. The “Percent Control” value (kinases (468) [23]) was 79%, the “Percent Control” value (kinases (468) [24]) was 85% and the “Percent Control” value (kinases (468) [25]) was 100%.
